For 15 compounds, DC50 results are on record in US20260200939A1, “MOLECULAR GLUE DEGRADER COMPOUNDS AND USES THEREOF” (Novartis AG, priority 2022, published 2026).

One assay has as its target T1, BRD4 long (Homo sapiens, UniProt O60885).
T1 construct: endogenous in cells; host or cells: HEK293T
Put plainly: BRD4 (long) degradation assay, Western blotting. It is filed as cell-based. The method, then: (§1) C33A cells were purchased from American Type Culture Collection (ATCC) and were cultured in Dulbecco's Modified Eagle Medium (DMEM) containing 10% (v/v) fetal bovine serum (FBS) and maintained at 37° C. with 5% CO2. 22RV1 cells were purchased from the ATCC and were cultured in RPMI-1640 Medium containing 10% (v/v) FBS and maintained at 37° C. with 5% CO2. HEK293T cells were obtained from the UC Berkeley Cell Culture Facility and were cultured in DMEM containing 10% (v/v) FBS and maintained at 37° C. with 5% CO2. K562 cells were obtained from the UC Berkeley Cell Culture Facility and were cultured in Iscove's Modified Dulbecco's Medium (IMDM) containing 10% (v/v) FBS and maintained at 37° C. with 5% CO2. MV-4-11 cells were obtained from the ATCC and were cultured in IMDM containing 10% (v/v) FBS and maintained at 37° C. with 5% CO2. A549 cells were obtained from the ATCC and were cultured in F-12K Medium containing 10% (v/v) FBS and maintained at 37° C. with 5% CO2. Mino cells were obtained from the ATCC and were cultured in RPMI-1640 Medium containing 10% (v/v) FBS and maintained at 37° C. with 5% CO2. LNCaP cells were obtained from the ATCC and were cultured in RPMI-1640 Medium containing 10% (v/v) FBS and maintained at 37° C. with 5% CO2. Unless otherwise specified, all cell culture materials were purchased from Gibco. It is not known whether HEK293T cells are from male or female origin.
(§2) Cells were washed twice with cold PBS, scraped, and pelleted by centrifugation (700 g, 5 min, 4° C.). Pellets were resuspended in PBS, sonicated, clarified by centrifugation (12,000 g, 10 min, 4° C.), and lysate was transferred to new low-adhesion microcentrifuge tubes. Proteome concentrations were determined using BCA assay and lysate was diluted to appropriate working concentrations.
(§3) Proteins were resolved by SDS/PAGE and transferred to nitrocellulose membranes using the Trans-Blot Turbo transfer system (Bio-Rad). Membranes were blocked with 5% BSA in Tris-buffered saline containing Tween 20 (TBS-T) solution for 30 min at RT, washed in TBS-T, and probed with primary antibody diluted in recommended diluent per manufacturer overnight at 4° C. After 3 washes with TBS-T, the membranes were incubated in the dark with IR680- or IR800-conjugated secondary antibodies at 1:10,000 dilution in 5% BSA in TBS-T at RT for 1 h. After 3 additional washes with TBST, blots were visualized using an Odyssey Li-Cor fluorescent scanner. The membranes were stripped using ReBlot Plus Strong Antibody Stripping Solution (EMD Millipore) when additional primary antibody incubations were performed. Antibodies used in this study were CDK4 (Abcam ab108357), Vinculin (Abcam ab129002), GAPDH (Cell Signaling Technology 14C10), RNF126 (Santa Cruz Biotechnology sc-376005), BRD4 (Abcam ab128874), Beta Actin (Cell Signaling Technology 13E5), PDE5 (Abcam ab259945), AR-V7 (Abcam ab273500), c-Abl (Santa Cruz Biotechnology sc-23), SMARCA2 (Abcam ab240648), LRRK2 (Abcam ab133474), BTK (Cell Signaling Technology D3H5), Androgen Receptor (Abcam ab133273).
(In western blotting, separated proteins are transferred to a membrane and probed.)

Another assay has as its target T2, BRD4 short (Homo sapiens, UniProt O60885).
T2 construct: endogenous in cells; host or cells: HEK293T
Put plainly: BRD4 (short) degradation assay, Western blotting. It is filed as cell-based. Here is the method:
as §1, §2, §3

Where [1] appears, read: first value of cell (long/short).
Setting [2] is: second value of cell (long/short).

The DC50 is the midpoint of the concentration-degradation curve. As for `COc1ccc(C(=O)/C(C)=C/C(=O)N2CCN(C(=O)C[C@@H]3N=C(c4ccc(Cl)cc4)c4c(sc(C)c4C)-n4c(C)nnc43)CC2)cc1` [Compound 139, (S,E)-4-(4-(2-(4-(4-chlorophenyl)-2,3,9-trimethyl-6H-thieno[3,2-f][1,2,4]triazolo[4,3-a][1,4]diazepin-6-yl)acetyl)piperazin-1-yl)-1-(4-methoxyphenyl)-2-methylbut-2-ene-1,4-dione], the half-maximal degradation concentration (DC50) on BRD4 long (setting [1]) and at BRD4 short (setting [2]) was above 1000 nM each time.

Regarding `Cc1sc2c(c1C)C(c1ccc(Cl)cc1)=N[C@@H](CC(=O)N1CCN(C(=O)/C=C/C(=O)c3ccccc3)CC1)c1nnc(C)n1-2` [Compound 140, (S,E)-1-(4-(2-(4-(4-chlorophenyl)-2,3,9-trimethyl-6H-thieno[3,2-f][1,2,4]triazolo[4,3-a][1,4]diazepin-6-yl)acetyl)piperazin-1-yl)-4-phenylbut-2-ene-1,4-dione], the DC50 on BRD4 long (setting [1]) and at BRD4 short (setting [2]) was below 100 nM throughout.

As to `COc1ccc(C(=O)/C=C(\C)C(=O)N2CCN(C(=O)C[C@@H]3N=C(c4ccc(Cl)cc4)c4c(sc(C)c4C)-n4c(C)nnc43)CC2)cc1` [Compound 141, (S,E)-1-(4-(2-(4-(4-chlorophenyl)-2,3,9-trimethyl-6H-thieno[3,2-f][1,2,4]triazolo[4,3-a][1,4]diazepin-6-yl)acetyl)piperazin-1-yl)-4-(4-methoxyphenyl)-2-methylbut-2-ene-1,4-dione], the half-maximal degradation concentration (DC50) on BRD4 long (setting [1]) and at BRD4 short (setting [2]) was above 1000 nM each time.

Turning to `COc1ccccc1C(=O)/C=C/C(=O)N1CCN(C(=O)C[C@@H]2N=C(c3ccc(Cl)cc3)c3c(sc(C)c3C)-n3c(C)nnc32)CC1` [Compound 142, (S,E)-1-(4-(2-(4-(4-chlorophenyl)-2,3,9-trimethyl-6H-thieno[3,2-f][1,2,4]triazolo[4,3-a][1,4]diazepin-6-yl)acetyl)piperazin-1-yl)-4-(2-methoxyphenyl)but-2-ene-1,4-dione], the DC50 on BRD4 long (setting [1]) and on BRD4 short (setting [2]) was below 100 nM in each case.

As to `COc1cccc(C(=O)/C=C/C(=O)N2CCN(C(=O)C[C@@H]3N=C(c4ccc(Cl)cc4)c4c(sc(C)c4C)-n4c(C)nnc43)CC2)c1` [Compound 143, (S,E)-1-(4-(2-(4-(4-chlorophenyl)-2,3,9-trimethyl-6H-thieno[3,2-f][1,2,4]triazolo[4,3-a][1,4]diazepin-6-yl)acetyl)piperazin-1-yl)-4-(3-methoxyphenyl)but-2-ene-1,4-dione], the DC50 at BRD4 long (setting [1]) and at BRD4 short (setting [2]) was below 100 nM throughout.

Consider `COc1ccc(C(=O)/C=C(\C#N)C(=O)N2CCN(C(=O)C[C@@H]3N=C(c4ccc(Cl)cc4)c4c(sc(C)c4C)-n4c(C)nnc43)CC2)cc1` [Compound 144, (S,E)-2-(4-(2-(4-(4-chlorophenyl)-2,3,9-trimethyl-6H-thieno[3,2-f][1,2,4]triazolo[4,3-a][1,4]diazepin-6-yl)acetyl)piperazine-1-carbonyl)-4-(4-methoxyphenyl)-4-oxobut-2-enenitrile], for which the DC50 on BRD4 long (setting [1]) and at BRD4 short (setting [2]) was above 1000 nM each time.

In the case of `Cc1sc2c(c1C)C(c1ccc(Cl)cc1)=N[C@@H](CC(=O)N1CCN(C(=O)/C=C/C(=O)c3ccc(F)cc3)CC1)c1nnc(C)n1-2` [Compound 202, (S,E)-1-(4-(2-(4-(4-chlorophenyl)-2,3,9-trimethyl-6H-thieno[3,2-f][1,2,4]triazolo[4,3-a][1,4]diazepin-6-yl)acetyl)piperazin-1-yl)-4-(4-fluorophenyl)but-2-ene-1,4-dione], the half-maximal degradation concentration (DC50) on BRD4 long (setting [1]) and at BRD4 short (setting [2]) was below 100 nM in each case.

Regarding `Cc1sc2c(c1C)C(c1ccc(Cl)cc1)=N[C@@H](CC(=O)N1CCN(C(=O)/C=C/C(=O)c3ccc4c(c3)NC(=O)CO4)CC1)c1nnc(C)n1-2` [Compound 203, (S,E)-1-(4-(2-(4-(4-chlorophenyl)-2,3,9-trimethyl-6H-thieno[3,2-f][1,2,4]triazolo[4,3-a][1,4]diazepin-6-yl)acetyl)piperazin-1-yl)-4-(3-oxo-3,4-dihydro-2H-benzo[b][1,4]oxazin-6-yl)but-2-ene-1,4-dione], the DC50 at BRD4 long (setting [1]) and at BRD4 short (setting [2]) was 10 to 100 nM each time.

For the compound `Cc1sc2c(c1C)C(c1ccc(Cl)cc1)=N[C@@H](CC(=O)N[C@H]1C[C@H](NC(=O)/C=C/C(=O)c3ccccc3)C1)c1nnc(C)n1-2` [Compound 204, (E)-N-((1S,3r)-3-(2-((S)-4-(4-chlorophenyl)-2,3,9-trimethyl-6H-thieno[3,2-f][1,2,4]triazolo[4,3-a][1,4]diazepin-6-yl)acetamido)cyclobutyl)-4-oxo-4-phenylbut-2-enamide], the DC50 on BRD4 long (setting [1]) and at BRD4 short (setting [2]) was 10 to 100 nM in each case.

In the case of `COc1ccc(C(=O)/C=C/C(=O)N2CCN(C(=O)C[C@@H]3N=C(c4ccc(Cl)cc4)c4c(sc(C)c4C)-n4c(C)nnc43)CC2)cn1` [Compound 205, (S,E)-1-(4-(2-(4-(4-chlorophenyl)-2,3,9-trimethyl-6H-thieno[3,2-f][1,2,4]triazolo[4,3-a][1,4]diazepin-6-yl)acetyl)piperazin-1-yl)-4-(6-methoxypyridin-3-yl)but-2-ene-1,4-dione], the DC50 at BRD4 long (setting [1]) and on BRD4 short (setting [2]) was 10 to 100 nM throughout.

With `COc1ccc(C(=O)/C=C/C(=O)N[C@H]2C[C@@H](NC(=O)C[C@@H]3N=C(c4ccc(Cl)cc4)c4c(sc(C)c4C)-n4c(C)nnc43)C2)cn1` [Compound 206, (E)-N-((1R,3s)-3-(2-((S)-4-(4-chlorophenyl)-2,3,9-trimethyl-6H-thieno[3,2-f][1,2,4]triazolo[4,3-a][1,4]diazepin-6-yl)acetamido)cyclobutyl)-4-(6-methoxypyridin-3-yl)-4-oxobut-2-enamide], the DC50 at BRD4 long (setting [1]) and on BRD4 short (setting [2]) was 10 to 100 nM each time.

Consider `COc1ccc(C(=O)/C=C/C(=O)N[C@H]2C[C@H](NC(=O)C[C@@H]3N=C(c4ccc(Cl)cc4)c4c(sc(C)c4C)-n4c(C)nnc43)C2)cn1` [Compound 207, (E)-N-((1S,3r)-3-(2-((S)-4-(4-chlorophenyl)-2,3,9-trimethyl-6H-thieno[3,2-f][1,2,4]triazolo[4,3-a][1,4]diazepin-6-yl)acetamido)cyclobutyl)-4-(6-methoxypyridin-3-yl)-4-oxobut-2-enamide], for which the DC50 on BRD4 long (setting [1]) and on BRD4 short (setting [2]) was 10 to 100 nM throughout.

On to `Cc1sc2c(c1C)C(c1ccc(Cl)cc1)=N[C@@H](CC(=O)N1CCN(C(=O)/C=C/C(=O)c3ccc4c(c3)OCC4)CC1)c1nnc(C)n1-2` [Compound 208, (S,E)-1-(4-(2-(4-(4-chlorophenyl)-2,3,9-trimethyl-6H-thieno[3,2-f][1,2,4]triazolo[4,3-a][1,4]diazepin-6-yl)acetyl)piperazin-1-yl)-4-(2,3-dihydrobenzofuran-6-yl)but-2-ene-1,4-dione], for which the DC50 on BRD4 long (setting [1]) and at BRD4 short (setting [2]) was below 10 nM each time.

As for `Cc1sc2c(c1C)C(c1ccc(Cl)cc1)=N[C@@H](CC(=O)N[C@H]1C[C@H](NC(=O)/C=C/C(=O)c3ccc4c(c3)OCC4)C1)c1nnc(C)n1-2` [Compound 209, (E)-N-((1S,3r)-3-(2-((S)-4-(4-chlorophenyl)-2,3,9-trimethyl-6H-thieno[3,2-f][1,2,4]triazolo[4,3-a][1,4]diazepin-6-yl)acetamido)cyclobutyl)-4-(2,3-dihydrobenzofuran-6-yl)-4-oxobut-2-enamide], the DC50 on BRD4 long (first value of cell, range with lower bound in nM and upper bound in μM) lay in the range of 100 to 1000 nM; at BRD4 short (second value of cell, range with lower bound in nM and upper bound in μM), 100 to 1000 nM.

`Cc1sc2c(c1C)C(c1ccc(Cl)cc1)=N[C@@H](CC(=O)N[C@H]1C[C@H](NC(=O)/C=C/C(=O)N3CC4(COC4)C3)C1)c1nnc(C)n1-2` [Compound 254, (E)-N-((1S,3r)-3-(2-((S)-4-(4-chlorophenyl)-2,3,9-trimethyl-6H-thieno[3,2-f][1,2,4]triazolo[4,3-a][1,4]diazepin-6-yl)acetamido)cyclobutyl)-4-oxo-4-(2-oxa-6-azaspiro[3.3]heptan-6-yl)but-2-enamide] gave a DC50 at BRD4 short (setting [2]) above 5000 nM.
